Assay results published in ChEMBL document CHEMBL1131400, “Synthesis and comparative evaluation of two antiviral agents: beta-L-Fd4C and beta-D-Fd4C” (Bioorg Med Chem Lett, 1998).

Columns and labels:
CCRF-CEM [1] = experiment: In vitro inhibitory activity against growth of HIV infected CEM cells combined with murine CTLL-2T lymphoblast cell line; format: functional, cell-based; settings: Homo sapiens
Hepatitis B virus = experiment: In vitro inhibitory activity against proliferation of HBV viral cell; format: functional, organism-based
MT2 = experiment: In vitro inhibitory activity against growth of HIV infected MT-2/IIIB cell line; format: functional, cell-based; settings: Homo sapiens
[2] = tested on: Human immunodeficiency virus; experiment: In vitro inhibitory activity against proliferation of HIV viral cell; format: functional, organism-based; settings: Human immunodeficiency virus 1
B16 = experiment: In vitro inhibitory activity against growth of HIV infected B16 cell line; format: functional, cell-based; settings: Mus musculus
DLD-1 = experiment: In vitro inhibitory activity against growth of HIV infected DLD-1 cell line; format: functional, cell-based; settings: Homo sapiens
CCRF-CEM [3] = experiment: In vitro inhibitory activity against growth of HIV infected CEM cell line; format: functional, cell-based; settings: Homo sapiens
Rat1 = experiment: In vitro inhibitory activity against growth of HIV infected Rat-1 cell line; format: functional, cell-based
HepG2 = experiment: In vitro inhibitory activity against growth of HIV infected HepG2 cell line; format: functional, cell-based; settings: Homo sapiens

Row | Compound | IC50 (CCRF-CEM [1]) | EC50 (Hepatitis B virus) | IC50 (MT2) | EC50 [2] | IC50 (B16) | IC50 (DLD-1) | IC50 (CCRF-CEM [3]) | IC50 (Rat1) | IC50 (HepG2)
1 | Nc1nc(=O)n([C@H]2C=C[C@@H](CO)O2)cc1F [DEXELVUCITABINE] | 127 µM | < 300 nM | 100 µM | 200 nM | > 200 µM | > 200 µM | 100 µM | > 200 µM | > 200 µM
2 | Nc1nc(=O)n([C@@H]2C=C[C@H](CO)O2)cc1F [ELVUCITABINE] | 24 µM |  | 9 µM | 200 nM | > 200 µM | > 200 µM | 6.5 µM | > 200 µM | > 200 µM
